Test results published in US9480754B2, “Phospholipid ether analogs as cancer-targeting drug vehicles” (Cellectar Biosciences, Inc., priority 2014, dated 2016).

What was measured:
Neuroblastoma Lan5 = assay: 124I-CLR1404 tumor uptake, model 17; format: in vivo; conditions: Nude mouse
Experimental: (§1) All described animal studies were performed according to animal protocols approved by the Institutional Animal Care and Use Committee. Female athymic nude mice (Hsd:Athymic Nude-Foxnlnu or Crl:NU-Foxnlnu, Charles River Laboratories) about 4 to 5 weeks of age, 16 to 18 g (n=6), were used for human tumor xenograft studies. Mice were anesthetized with isoflurane and injected subcutaneously with viable tumor cells in 100 μl of Dulbecco's PBS (or, for glioma cells, […] of PBS) into the right flank. Inoculum sizes were 1×10^6 (for renal, ovarian, glioma, pancreatic, prostate, and NSCLC models), […] (for colorectal and uterine models), or 3×10^6 (breast).
(§2) Radioiodinated ^124I-CLR1404 was tested in subcutaneous and orthotopic xenografts of 60 different spontaneous, transgenic, human, and rodent malignant cell lines and tumor types. […] Representative examples are of both human (FIG. 5A-5I) and rodent (FIG. 5J-M) tumors.

Bladder SV40 = assay: 124I-CLR1404 tumor uptake, model 36; format: in vivo; conditions: Mouse (orthotopic), Adenocarcinoma
Experimental: as §1, §2

Glioma RG2 = assay: 124I-CLR1404 tumor uptake, model 50; format: in vivo; conditions: Rat xenograft
Experimental: as §1, §2

Lung NCI H-69 (Oat Cell) = assay: 124I-CLR1404 tumor uptake, model 3; format: in vivo; conditions: SCID mouse, Small cell carcinoma
Experimental: as §1, §2

[1] = system: xenograft, orthotopic and transgenic cancer and cancer stem cell derived animal models; assay: CLR1404 tumor selectivity across 60 tumor models; format: in vivo, rodent; conditions: 60 different malignant cell lines and tumor types
Experimental: as §1, §2

Mammary SCC = assay: 124I-CLR1404 tumor uptake, model 44; format: in vivo; conditions: ApcMin/+ mouse, Squamous cell carcinoma
Experimental: as §1, §2

Adrenal H-295 = assay: 124I-CLR1404 tumor uptake, model 4; format: in vivo; conditions: SCID mouse, Adenocarcinoma
Experimental: as §1, §2

Colon DLD1 = assay: 124I-CLR1404 tumor uptake, model 8; format: in vivo; conditions: SCID mouse, Adenocarcinoma
Experimental: as §1, §2

Renal cell ACHN = assay: 124I-CLR1404 tumor uptake, model 24; format: in vivo; conditions: Nude mouse (orthotopic), Adenocarcinoma
Experimental: as §1, §2

[2] = system: Triple negative breast MDA-MB231; assay: 124I-CLR1404 tumor uptake, model 31; format: in vivo; conditions: Nude mouse, Adenocarcinoma
Experimental: as §1, §2

Colon-51 = assay: 124I-CLR1404 tumor uptake, model 6; format: in vivo; conditions: SCID mouse, Adenocarcinoma
Experimental: as §1, §2

Breast MCF-7 = assay: 124I-CLR1404 tumor uptake, model 30; format: in vivo; conditions: Rat, Adenocarcinoma
Experimental: as §1, §2

Mammary AC = assay: 124I-CLR1404 tumor uptake, model 45; format: in vivo; conditions: ApcMin/+ mouse, Adenocarcinoma
Experimental: as §1, §2

Head and neck SCC1 = assay: 124I-CLR1404 tumor uptake, model 26; format: in vivo; conditions: Nude mouse, Squamous cell carcinoma
Experimental: as §1, §2

Prostate LuCap = assay: 124I-CLR1404 tumor uptake, model 29; format: in vivo; conditions: Mouse, Adenocarcinoma
Experimental: as §1, §2

Glioblastoma 22 GSC = assay: 124I-CLR1404 tumor uptake, model 33; format: in vivo; conditions: NOD-SCID mouse (orthotopic), Glioma
Experimental: as §1, §2

Hepatocellular carcinoma = assay: 124I-CLR1404 tumor uptake, model 46; format: in vivo; conditions: Endogenous mouse, Adenocarcinoma
Experimental: as §1, §2

Neuroblastoma CHLA-20 = assay: 124I-CLR1404 tumor uptake, model 16; format: in vivo; conditions: Nude mouse
Experimental: as §1, §2

Hepatoma Hep-G2 = assay: 124I-CLR1404 tumor uptake, model 59; format: in vivo; conditions: Nude mouse, Carcinoma
Experimental: as §1, §2

Colon LS-180 = assay: 124I-CLR1404 tumor uptake, model 10; format: in vivo; conditions: Nude mouse, Adenocarcinoma
Experimental: as §1, §2

Glioma C6 = assay: 124I-CLR1404 tumor uptake, model 48; format: in vivo; conditions: Rat xenograft
Experimental: as §1, §2

Colon HT-29 = assay: 124I-CLR1404 tumor uptake, model 9; format: in vivo; conditions: SCID mouse, Adenocarcinoma
Experimental: as §1, §2

Pancreatic Mia Paca-2 = assay: 124I-CLR1404 tumor uptake, model 21; format: in vivo; conditions: Nude mouse, Carcinoma
Experimental: as §1, §2

TRAMP prostate = assay: 124I-CLR1404 tumor uptake, model 39; format: in vivo; conditions: Endogenous mouse, Adenocarcinoma
Experimental: as §1, §2

Glioblastoma U87 = assay: 124I-CLR1404 tumor uptake, model 11; format: in vivo; conditions: Nude mouse and NOD-SCID, Glioma
Experimental: as §1, §2

Walker256 = assay: 124I-CLR1404 tumor uptake, model 38; format: in vivo; conditions: Rat, Carcinosarcoma
Experimental: as §1, §2

Glioma L9 = assay: 124I-CLR1404 tumor uptake, model 47; format: in vivo; conditions: Rat xenograft
Experimental: as §1, §2

Pirc rat colon adenoma = assay: 124I-CLR1404 tumor uptake, model 60; format: in vivo
Experimental: as §1, §2

Intestinal polyp = assay: 124I-CLR1404 tumor uptake, model 56; format: in vivo; conditions: Endogenous mouse, Adenoma (benign)
Experimental: as §1, §2

Colon CT26 = assay: 124I-CLR1404 tumor uptake, model 40; format: in vivo; conditions: SCID mouse, Adenocarcinoma
Experimental: as §1, §2

Prostate LNCap = assay: 124I-CLR1404 tumor uptake, model 28; format: in vivo; conditions: Mouse, Adenocarcinoma
Experimental: as §1, §2

Retinoblastoma = assay: 124I-CLR1404 tumor uptake, model 51; format: in vivo; conditions: Endogenous mouse, Blastoma
Experimental: as §1, §2

Ovarian HTB-77 = assay: 124I-CLR1404 tumor uptake, model 18; format: in vivo; conditions: Nude mouse, Adenocarcinoma
Experimental: as §1, §2

Pancreatic BXPC3 = assay: 124I-CLR1404 tumor uptake, model 20; format: in vivo; conditions: Nude mouse, Adenocarcinoma
Experimental: as §1, §2

Hepatoma Hep-3B = assay: 124I-CLR1404 tumor uptake, model 58; format: in vivo; conditions: Nude mouse, Carcinoma
Experimental: as §1, §2

Min mouse intestinal = assay: 124I-CLR1404 tumor uptake, model 42; format: in vivo; conditions: Endogenous mouse, Adenocarcinoma
Experimental: as §1, §2

Pancreatic Kras = assay: 124I-CLR1404 tumor uptake, model 53; format: in vivo; conditions: Endogenous mouse, Adenocarcinoma
Experimental: as §1, §2

Pancreatic Capan-1 = assay: 124I-CLR1404 tumor uptake, model 22; format: in vivo; conditions: Nude mouse, Adenocarcinoma
Experimental: as §1, §2

Neuroblastoma SK-N-AS = assay: 124I-CLR1404 tumor uptake, model 14; format: in vivo; conditions: Nude mouse
Experimental: as §1, §2

Uterine MES SA/Dx5 = assay: 124I-CLR1404 tumor uptake, model 32; format: in vivo; conditions: Nude mouse, Sarcoma
Experimental: as §1, §2

Prostate MatLyLu = assay: 124I-CLR1404 tumor uptake, model 37; format: in vivo; conditions: Rat, Adenocarcinoma
Experimental: as §1, §2

Glioma CNS1 = assay: 124I-CLR1404 tumor uptake, model 49; format: in vivo; conditions: Rat xenograft
Experimental: as §1, §2

Breast 4T1 = assay: 124I-CLR1404 tumor uptake, model 35; format: in vivo; conditions: Endogenous mouse (orthotopic), Adenocarcinoma
Experimental: as §1, §2

Pancreatic c-myc = assay: 124I-CLR1404 tumor uptake, model 52; format: in vivo; conditions: Endogenous mouse, Adenocarcinoma
Experimental: as §1, §2

C[N+](C)(C)CCOP(=O)([O-])OCCCCCCCCCCCCCCCCCCc1ccc(I)cc1 [^124I-CLR1404]
Uptake (Neuroblastoma Lan5): Yes (Tumor uptake was considered positive if tumor to muscle ratio was greater than 3.) | Uptake (Bladder SV40): Yes (Tumor uptake was considered positive if tumor to muscle ratio was greater than 3.) | Uptake (Glioma RG2): Yes (Tumor uptake was considered positive if tumor to muscle ratio was greater than 3.) | Uptake (Lung NCI H-69 (Oat Cell)): Yes (Tumor uptake was considered positive if tumor to muscle ratio was greater than 3.) | tumor localization after intravenous administration [1]: localized in almost all primary and metastatic malignant tumors | Uptake (Mammary SCC): Yes (Tumor uptake was considered positive if tumor to muscle ratio was greater than 3.) | Uptake (Adrenal H-295): Yes (Tumor uptake was considered positive if tumor to muscle ratio was greater than 3.) | Uptake (Colon DLD1): Yes (Tumor uptake was considered positive if tumor to muscle ratio was greater than 3.) | Uptake (Renal cell ACHN): Yes (Tumor uptake was considered positive if tumor to muscle ratio was greater than 3.) | Uptake [2]: Yes (Tumor uptake was considered positive if tumor to muscle ratio was greater than 3.) | Uptake (Colon-51): Yes (Tumor uptake was considered positive if tumor to muscle ratio was greater than 3.) | Uptake (Breast MCF-7): Yes (Tumor uptake was considered positive if tumor to muscle ratio was greater than 3.) | Uptake (Mammary AC): Yes (Tumor uptake was considered positive if tumor to muscle ratio was greater than 3.) | Uptake (Head and neck SCC1): Yes (Tumor uptake was considered positive if tumor to muscle ratio was greater than 3.) | Uptake (Prostate LuCap): Yes (Tumor uptake was considered positive if tumor to muscle ratio was greater than 3.) | Uptake (Glioblastoma 22 GSC): Yes (Tumor uptake was considered positive if tumor to muscle ratio was greater than 3.) | Uptake (Hepatocellular carcinoma): Yes (Tumor uptake was considered positive if tumor to muscle ratio was greater than 3.) | Uptake (Neuroblastoma CHLA-20): Yes (Tumor uptake was considered positive if tumor to muscle ratio was greater than 3.) | Uptake (Hepatoma Hep-G2): No (Tumor:muscle ratio less than or equal to 2 was considered negative.) | Uptake (Colon LS-180): Yes (Tumor uptake was considered positive if tumor to muscle ratio was greater than 3.) | Uptake (Glioma C6): Yes (Tumor uptake was considered positive if tumor to muscle ratio was greater than 3.) | Uptake (Colon HT-29): Yes (Tumor uptake was considered positive if tumor to muscle ratio was greater than 3.) | Uptake (Pancreatic Mia Paca-2): Yes (Tumor uptake was considered positive if tumor to muscle ratio was greater than 3.) | Uptake (TRAMP prostate): Yes (Tumor uptake was considered positive if tumor to muscle ratio was greater than 3.) | Uptake (Glioblastoma U87): Yes (Tumor uptake was considered positive if tumor to muscle ratio was greater than 3.) | Uptake (Walker256): Yes (Tumor uptake was considered positive if tumor to muscle ratio was greater than 3.) | Uptake (Glioma L9): Yes (Tumor uptake was considered positive if tumor to muscle ratio was greater than 3.) | Uptake (Pirc rat colon adenoma): No (Tumor:muscle ratio less than or equal to 2 was considered negative.) | Uptake (Intestinal polyp): No (Tumor:muscle ratio less than or equal to 2 was considered negative.) | Uptake (Colon CT26): Yes (Tumor uptake was considered positive if tumor to muscle ratio was greater than 3.) | Uptake (Prostate LNCap): Yes (Tumor uptake was considered positive if tumor to muscle ratio was greater than 3.) | Uptake (Retinoblastoma): Yes (Tumor uptake was considered positive if tumor to muscle ratio was greater than 3.) | Uptake (Ovarian HTB-77): Yes (Tumor uptake was considered positive if tumor to muscle ratio was greater than 3.) | Uptake (Pancreatic BXPC3): Yes (Tumor uptake was considered positive if tumor to muscle ratio was greater than 3.) | Uptake (Hepatoma Hep-3B): No (Tumor:muscle ratio less than or equal to 2 was considered negative.) | Uptake (Min mouse intestinal): Yes (Tumor uptake was considered positive if tumor to muscle ratio was greater than 3.) | Uptake (Pancreatic Kras): Yes (Tumor uptake was considered positive if tumor to muscle ratio was greater than 3.) | Uptake (Pancreatic Capan-1): Yes (Tumor uptake was considered positive if tumor to muscle ratio was greater than 3.) | Uptake (Neuroblastoma SK-N-AS): Yes (Tumor uptake was considered positive if tumor to muscle ratio was greater than 3.) | Uptake (Uterine MES SA/Dx5): Yes (Tumor uptake was considered positive if tumor to muscle ratio was greater than 3.) | Uptake (Prostate MatLyLu): Yes (Tumor uptake was considered positive if tumor to muscle ratio was greater than 3.) | Uptake (Glioma CNS1): Yes (Tumor uptake was considered positive if tumor to muscle ratio was greater than 3.) | Uptake (Breast 4T1): Yes (Tumor uptake was considered positive if tumor to muscle ratio was greater than 3.) | Uptake (Pancreatic c-myc): Yes (Tumor uptake was considered positive if tumor to muscle ratio was greater than 3.)
